Calls of active or inactive are those of the source. The calls are words filed in the database; no cut-off is given here.
Tests used:
Beta-secretase 1 [1] = target: T1, Beta-secretase 1 (Homo sapiens, UniProt P56817); experiment: Inhibition of BACE 1 (unknown origin) at 10 to 50 uM using Rh-EVNLDAEFK-Quencher as substrate after 1 hr by FRET assay relative to control
[2] = Disaggregation of Cu2+ induced amyloid beta (1 to 40) preformed fibrils assessed as aggregation level at 100 uM after 12 days by UV-visible turbidity method (reference value: 120.73 +/- 1.86%)
[3] = target: Amyloid-beta precursor protein (Homo sapiens) (UniProt P05067); experiment: Inhibition of self-induced amyloid beta (1 to 40) (unknown origin) fibril aggregation assessed as fluorescence emission at 100 uM measured on day 3 by thioflavin-T based assay
[4] = Inhibition of Cu2+ induced amyloid beta (1 to 40) fibril aggregation assessed as fluorescence emission at 100 uM measured on day 10 by thioflavin-T based assay (reference value: 412.11 +/- 35.93)
[5] = target: Amyloid-beta precursor protein (Homo sapiens) (UniProt P05067); experiment: Disaggregation of self-induced amyloid beta (1 to 40) (unknown origin) preformed fibrils assessed as fluorescence emission at 100 uM after 4 days by thioflavin-T based assay; set-up: reference not given here
[6] = Inhibition of Cu2+ induced amyloid beta (1 to 40) fibril aggregation assessed as aggregation level at 100 uM measured on day 3 by UV-visible turbidity method (reference value: 100 +/- 17.24%); set-up: scale not given: the % may be the effect or the level left
[7] = Disaggregation of Cu2+ induced amyloid beta (1 to 40) preformed fibrils assessed as fluorescence emission at 100 uM after 4 days by thioflavin-T based assay (reference value: 178.07 +/- 17.24)
[8] = Metal chelating activity assessed as inhibition of Cu2+ induced amyloid beta (1 to 40) aggregation by measuring decrease in ROS production at 2 equiv after 75 mins by fluorescence assay
[9] = target: Amyloid-beta precursor protein (Homo sapiens) (UniProt P05067); experiment: Inhibition of self-induced amyloid beta (1 to 40) (unknown origin) fibril aggregation assessed as aggregation level at 100 uM measured on day 7 by UV-visible turbidity method; set-up: scale not given: the % may be the effect or the level left
[10] = Antioxidant activity assessed as AAPH radical scavenging activity at 1 to 16 uM by ORAC assay; assay type: functional
[11] = Inhibition of Cu2+ induced amyloid beta (1 to 40) fibril aggregation assessed as fluorescence emission at 100 uM measured on day 7 by thioflavin-T based assay (reference value: 181.04 +/- 1.74)
[12] = Disaggregation of Cu2+ induced amyloid beta (1 to 40) preformed fibrils assessed as fluorescence emission at 100 uM after 12 days by thioflavin-T based assay (reference value: 150.21 +/- 2.32)
[13] = target: Amyloid-beta precursor protein (Homo sapiens) (UniProt P05067); experiment: Disaggregation of self-induced amyloid beta (1 to 40) (unknown origin) preformed fibrils assessed as fluorescence emission at 100 uM after 12 days by thioflavin-T based assay; set-up: reference not given here
[14] = target: Amyloid-beta precursor protein (Homo sapiens) (UniProt P05067); experiment: Inhibition of self-induced amyloid beta (1 to 40) (unknown origin) fibril aggregation assessed as aggregation level at 100 uM measured on day 3 by UV-visible turbidity method; set-up: scale not given: the % may be the effect or the level left
[15] = Cytotoxicity against human HEK293 cells assessed as decrease in cell viability after 48 hrs by MTT assay; assay type: cell-based; details: read-out: LD50
[16] = Disaggregation of Cu2+ induced amyloid beta (1 to 40) preformed fibrils assessed as aggregation level at 100 uM after 4 days by UV-visible turbidity method (reference value: 143.11 +/- 0.76%)
[17] = target: Amyloid-beta precursor protein (Homo sapiens) (UniProt P05067); experiment: Inhibition of self-induced amyloid beta (1 to 40) (unknown origin) fibril aggregation assessed as fluorescence emission at 100 uM measured on day 10 by thioflavin-T based assay; set-up: reference not given here
[18] = Toxicity in Tetrahymena thermophila assessed as decrease in viability after 48 hrs by MTT assay; assay type: organism-based; details: Tetrahymena thermophila cells, read-out: LD50
[19] = Inhibition of Cu2+ induced amyloid beta (1 to 40) fibril aggregation assessed as aggregation level at 100 uM measured on day 10 by UV-visible turbidity method (reference value: 100 +/- 8.72%); set-up: scale not given: the % may be the effect or the level left
[20] = target: Amyloid-beta precursor protein (Homo sapiens) (UniProt P05067); experiment: Disaggregation of self-induced amyloid beta (1 to 40) (unknown origin) preformed fibrils assessed as aggregation level at 100 uM after 12 days by UV-visible turbidity method
[21] = Inhibition of Cu2+ induced amyloid beta (1 to 40) fibril aggregation assessed as aggregation level at 100 uM measured on day 7 by UV-visible turbidity method (reference value: 100 +/- 0.96%); set-up: scale not given: the % may be the effect or the level left
[22] = Inhibition of Cu2+ induced amyloid beta (1 to 40) fibril aggregation assessed as fluorescence emission at 100 uM measured on day 3 by thioflavin-T based assay (reference value: 33.64 +/- 5.80)
[23] = target: Amyloid-beta precursor protein (Homo sapiens) (UniProt P05067); experiment: Inhibition of self-induced amyloid beta (1 to 40) (unknown origin) fibril aggregation assessed as fluorescence emission at 100 uM measured on day 7 by thioflavin-T based assay
[24] = Metal chelating activity assessed as compound-Cu2+ adduct formation by spectrophotometric analysis
Beta-secretase 1 [25] = target: T1, Beta-secretase 1; experiment: Inhibition of BACE 1 (unknown origin) at 50 uM using Rh-EVNLDAEFK-Quencher as substrate after 1 hr by FRET assay relative to control
Tetrahymena thermophila = experiment: Toxicity in Tetrahymena thermophila assessed as decrease in viability after 48 hrs by MTT assay relative to resveratrol; assay type: organism-based; details: in vivo
Beta-secretase 1 [26] = target: T1, Beta-secretase 1; experiment: Inhibition of BACE 1 (unknown origin) using 500 nM of Rh-EVNLDAEFK-Quencher as substrate after 1 hr by FRET assay
HEK293 = experiment: Cytotoxicity against human HEK293 cells assessed as decrease in cell viability after 48 hrs by MTT assay relative to resveratrol; assay type: cell-based; details: hek293, 48 h
[27] = target: Amyloid-beta precursor protein (Homo sapiens) (UniProt P05067); experiment: Inhibition of self-induced amyloid beta (1 to 40) (unknown origin) fibril aggregation assessed as aggregation level at 100 uM measured on day 10 by UV-visible turbidity method; set-up: scale not given: the % may be the effect or the level left
[28] = target: Amyloid-beta precursor protein (Homo sapiens) (UniProt P05067); experiment: Disaggregation of self-induced amyloid beta (1 to 40) (unknown origin) preformed fibrils assessed as aggregation level at 100 uM after 4 days by UV-visible turbidity method
[29] = Metal chelating activity assessed as compound-Cu2+ adduct formation at 20 uM by spectrophotometric titration analysis
Beta-secretase 1 [30] = target: T1, Beta-secretase 1; experiment: Inhibition of BACE 1 (unknown origin) using 250 nM of Rh-EVNLDAEFK-Quencher as substrate after 1 hr by FRET assay
[31] = target: Amyloid-beta precursor protein (Homo sapiens) (UniProt P05067); experiment: Induction of amyloid beta (1 to 40) (unknown origin) amorphous aggregation at 100 uM after 10 days
[32] = Antioxidant activity assessed as AAPH radical scavenging activity up to 64 uM by ORAC assay; assay type: functional

Sequence of Amyloid-beta precursor protein (Homo sapiens) (P05067 whole entry): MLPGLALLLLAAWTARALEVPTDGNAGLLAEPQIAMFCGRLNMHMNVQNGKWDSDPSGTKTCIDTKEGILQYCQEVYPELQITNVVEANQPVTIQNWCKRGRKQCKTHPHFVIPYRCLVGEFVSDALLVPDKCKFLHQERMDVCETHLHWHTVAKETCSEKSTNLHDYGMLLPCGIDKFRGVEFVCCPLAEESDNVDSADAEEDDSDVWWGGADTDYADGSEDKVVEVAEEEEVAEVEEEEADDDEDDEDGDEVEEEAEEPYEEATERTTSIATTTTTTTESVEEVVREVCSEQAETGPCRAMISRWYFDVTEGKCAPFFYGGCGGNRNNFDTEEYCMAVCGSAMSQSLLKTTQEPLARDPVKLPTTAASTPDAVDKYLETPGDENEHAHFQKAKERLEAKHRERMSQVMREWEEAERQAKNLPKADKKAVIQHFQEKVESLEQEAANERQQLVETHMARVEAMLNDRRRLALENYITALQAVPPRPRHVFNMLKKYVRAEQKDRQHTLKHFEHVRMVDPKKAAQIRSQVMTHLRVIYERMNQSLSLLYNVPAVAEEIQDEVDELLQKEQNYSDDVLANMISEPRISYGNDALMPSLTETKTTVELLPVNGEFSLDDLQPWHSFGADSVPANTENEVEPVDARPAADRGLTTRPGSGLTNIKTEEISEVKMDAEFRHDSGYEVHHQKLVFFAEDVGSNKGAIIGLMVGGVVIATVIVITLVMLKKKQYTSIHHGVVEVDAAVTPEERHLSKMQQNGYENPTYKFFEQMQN
T1 sequence (P56817 whole entry): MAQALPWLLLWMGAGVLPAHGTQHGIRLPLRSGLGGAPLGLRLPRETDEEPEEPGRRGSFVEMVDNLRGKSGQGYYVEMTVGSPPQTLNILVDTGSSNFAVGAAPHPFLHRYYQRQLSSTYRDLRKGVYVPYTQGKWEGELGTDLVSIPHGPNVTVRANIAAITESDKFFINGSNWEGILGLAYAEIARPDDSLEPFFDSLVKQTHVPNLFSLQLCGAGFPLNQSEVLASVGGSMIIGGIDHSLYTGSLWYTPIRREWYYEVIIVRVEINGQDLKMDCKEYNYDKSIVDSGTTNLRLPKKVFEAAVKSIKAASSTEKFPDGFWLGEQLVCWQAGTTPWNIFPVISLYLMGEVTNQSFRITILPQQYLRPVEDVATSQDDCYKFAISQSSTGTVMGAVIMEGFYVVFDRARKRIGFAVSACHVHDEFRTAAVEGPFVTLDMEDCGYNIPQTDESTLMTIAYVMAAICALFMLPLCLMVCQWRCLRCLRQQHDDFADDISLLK

Compound | Activity [2] [%] | Flu intensity [3] | Flu intensity [4] | Flu intensity [5] | Activity [6] [%] | Flu intensity [7] | inhibition [8] [%] | Activity [9] [%] | ORAC (Trolox equivalents) [10] | Flu intensity [11] | Flu intensity [12] | Flu intensity [13] | Activity [14] [%] | CC50 at 48 h [15] [µM] | Activity [16] [%] | Flu intensity [17] | Activity [19] [%] | Activity [20] [%] | Activity [21] [%] | Flu intensity [22] | also measured
CCN(CC)CCCC(C)Nc1ccnc2cc(Cl)ccc12 (stereo not drawn) |  |  |  |  |  |  |  |  |  |  |  |  |  |  |  |  |  |  |  |  | inhibition (Beta-secretase 1 [1]): < 50%
Oc1ccc(/C=C/c2cc(O)cc(O)c2)cc1 [RESVERATROL] | 20.2 | 272 | 27.3 | 230 | 222 | 29.8 | 9 | 75.2 | 1.7 | 65 | 25.2 | 114 | 108 | 71.3 | 23.9 | 251 | 6.63 | 44.5 | 35.9 | 74.7 | LC50 at 48 h [18]: 240 µM; Flu intensity [23]: 294
Oc1ccc(/C=N/CCn2ccc3ccccc32)c(O)c1 | 47.5 | 273 | 155 | 213 | 722 | 73 | 68.5 | 86 | 5.22 | 203 | 59 | 183 | 109 | 193 | 58.6 | 298 | 37.6 | 71.8 | 112 | 243 | Activity [24]: Active; inhibition (Beta-secretase 1 [25]): 100%; inhibition (Beta-secretase 1 [1]): < 50%; fold change (FC) (Tetrahymena thermophila): 2.3; IC50 (Beta-secretase 1 [26]): 5.7 µM; fold change (FC) (HEK293): 2.7; LC50 at 48 h [18]: 556 µM; Activity [27]: 73%; Flu intensity [23]: 336; Activity [28]: 83.2%; logKa [29]: 13.4; IC50 (Beta-secretase 1 [30]): 4.4 µM; Activity [31]: 6 to 33%
Cl.Nc1ncnc2c1ncn2CCNCC/N=C/c1ccc(O)cc1O | 30.9 | 247 | 135 | 246 | 299 | 60.9 | 97.5 | 90.9 | 2.39 | 172 | 38.4 | 226 | 98.2 | 336 | 48.9 | 367 | 32.7 | 88.4 | 94.8 | 100 | Activity [24]: Active; inhibition (Beta-secretase 1 [25]): 59.2%; inhibition (Beta-secretase 1 [1]): < 50%; fold change (FC) (Tetrahymena thermophila): 3.4; IC50 (Beta-secretase 1 [26]): 42 µM; fold change (FC) (HEK293): 4.7; LC50 at 48 h [18]: 811 µM; Activity [27]: 89.8%; Flu intensity [23]: 356; Activity [28]: 96.3%; logKa [29]: 14.8; IC50 (Beta-secretase 1 [30]): 41.4 µM; Activity [31]: 6 to 33%
Oc1ccc(/C=N/CCn2ccc3cccnc32)c(O)c1 | 59.7 | 310 | 185 | 226 | 673 | 106 | 71.9 | 94 | 8.13 | 233 | 74.3 | 219 | 124 | 280 | 85.4 | 344 | 44.9 | 85.9 | 129 | 227 | Activity [24]: Active; inhibition (Beta-secretase 1 [25]): 31.6%; inhibition (Beta-secretase 1 [1]): < 50%; fold change (FC) (Tetrahymena thermophila): 2.5; fold change (FC) (HEK293): 3.9; LC50 at 48 h [18]: 610 µM; Activity [27]: 84.2%; Flu intensity [23]: 368; Activity [28]: 88.4%; logKa [29]: 12.7; IC50 (Beta-secretase 1 [30]): 107 µM; Activity [31]: 6 to 33%
O=C(NCCNc1ccnc2cc(Cl)ccc12)c1cnccn1 | 57.6 | 313 | 195 | 289 | 124 | 109 | 36.2 | 181 |  | 245 | 71.7 | 224 | 125 | 113 | 87.7 | 767 | 47.2 | 87.8 | 135 | 41.7 | Activity [32]: inactive; inhibition (Beta-secretase 1 [25]): 91%; IC50 (Beta-secretase 1 [26]): 9.9 µM; fold change (FC) (HEK293): 1.6; Activity [27]: 188%; Flu intensity [23]: 707; Activity [28]: 113%; logKa [29]: inactive; IC50 (Beta-secretase 1 [30]): 1.7 µM
C[C@@]1(c2cc(-c3cncnc3)c(F)cc2F)CCSC(N)=N1 |  |  |  |  |  |  |  |  |  |  |  |  |  |  |  |  |  |  |  |  | inhibition (Beta-secretase 1 [25]): 100%
O=C1O[C@H]([C@@H](O)CO)C(O)=C1O |  |  |  |  |  |  |  |  | 62.2 |  |  |  |  |  |  |  |  |  |  |  | 
Cl.Oc1ccc(/C=N/CCNCCn2cnc3ccccc32)c(O)c1 | 38.6 | 165 | 95 | 184 | 328 | 60.4 | 93.7 | 57.5 | 1.42 | 106 | 48 | 160 | 65.6 | 184 | 48.5 | 282 | 23.1 | 62.6 | 58.5 | 110 | Activity [24]: Active; inhibition (Beta-secretase 1 [25]): 62.5%; inhibition (Beta-secretase 1 [1]): < 50%; fold change (FC) (Tetrahymena thermophila): 2.2; IC50 (Beta-secretase 1 [26]): 18.5 µM; fold change (FC) (HEK293): 2.6; LC50 at 48 h [18]: 529 µM; Activity [27]: 69%; Flu intensity [23]: 225; Activity [28]: 72.2%; logKa [29]: 14.8; IC50 (Beta-secretase 1 [30]): 15.6 µM; Activity [31]: 6 to 33%
Oc1ccccc1/C=N/CCNc1ccnc2cc(Cl)ccc12 | 54.8 | 344 | 161 | 262 | 410 | 97 | 57.9 | 117 | 2.33 | 178 | 68.2 | 230 | 137 | 113 | 78 | 286 | 39.1 | 90 | 98.5 | 138 | Activity [24]: Active; inhibition (Beta-secretase 1 [25]): 29.6%; fold change (FC) (HEK293): 1.6; Activity [27]: 94.3%; Flu intensity [23]: 458; Activity [28]: 102%; logKa [29]: 15.3; IC50 (Beta-secretase 1 [30]): > 160 µM; Activity [31]: 6 to 33%

Reference: ChEMBL document CHEMBL4152355, “Novel multi-target compounds in the quest for new chemotherapies against Alzheimer's disease: An experimental and theoretical study” (Bioorg Med Chem, 2018)
